Tested on: 422866-222-R5-J1-PDC spheroid viability
Assay: Anticancer human tumor 422866-222-R5-J1-PDC patient-derived pancreatic adenocarcinoma cell line growth inhibition [CLK]
Settings: spheroids with HUVEC and MSC; for IC50: curve of first compound; for viability, T/C: stronger effect = lower value
How it was run: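 Patient-derived tumor cells grown as complex spheroids with HUVEC endothelial cells and mesenchymal stem cells, treated with drug combinations. Concentrations descend in half-log steps from near clinical Cmax, or from 10 microM if Cmax unknown.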

[1] = second compound 0.0316 µM, first compound 0.0316 µM
[2] = second compound 0.0316 µM, first compound 0.1 µM
[3] = second compound 0.0316 µM, first compound 0.316 µM
[4] = second compound 0.0316 µM, first compound 1 µM
[5] = second compound 0.0316 µM, first compound 3.16 µM
[6] = second compound 0.0316 µM, first compound 10 µM
[7] = second compound 0.1 µM, first compound 0.0316 µM
[8] = second compound 0.1 µM, first compound 0.1 µM
[9] = second compound 0.1 µM, first compound 0.316 µM
[10] = second compound 0.1 µM, first compound 1 µM
[11] = second compound 0.1 µM, first compound 3.16 µM
[12] = second compound 0.1 µM, first compound 10 µM
[13] = second compound 0.316 µM, first compound 0.0316 µM
[14] = second compound 0.316 µM, first compound 0.1 µM
[15] = second compound 0.316 µM, first compound 0.316 µM
[16] = second compound 0.316 µM, first compound 1 µM
[17] = second compound 0.316 µM, first compound 3.16 µM
[18] = second compound 0.316 µM, first compound 10 µM
[19] = second compound 1 µM, first compound 0.0316 µM
[20] = second compound 1 µM, first compound 0.1 µM
[21] = second compound 1 µM, first compound 0.316 µM
[22] = second compound 1 µM, first compound 1 µM
[23] = second compound 1 µM, first compound 3.16 µM
[24] = second compound 1 µM, first compound 10 µM
[25] = second compound 3.16 µM, first compound 0.0316 µM
[26] = second compound 3.16 µM, first compound 0.1 µM
[27] = second compound 3.16 µM, first compound 0.316 µM
[28] = second compound 3.16 µM, first compound 1 µM
[29] = second compound 3.16 µM, first compound 3.16 µM
[30] = second compound 3.16 µM, first compound 10 µM
[31] = second compound 10 µM, first compound 0.0316 µM
[32] = second compound 10 µM, first compound 0.1 µM
[33] = second compound 10 µM, first compound 0.316 µM
[34] = second compound 10 µM, first compound 1 µM
[35] = second compound 10 µM, first compound 3.16 µM
[36] = second compound 10 µM, first compound 10 µM
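Also: spheroids exposed to agents for seven days before readout.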

Q: For `CCCS(=O)(=O)Nc1ccc(F)c(C(=O)c2c[nH]c3ncc(-c4ccc(Cl)cc4)cc23)c1F` + CNC(=O)c1ccc(Nc2nc(OC3CCCC3)c3c(-c4ccc5nc(C)oc5c4)c[nH]c3n2)c(OC)c1, which IC50 (second compound 0.0316 µM) is on record?
A: > 10 µM

Q: What about the IC50 (second compound 0.1 µM) of the same molecule?
A: > 10 µM

Q: What about the IC50 (second compound 0.316 µM) of the same molecule?
A: > 10 µM

Q: What about the IC50 (second compound 1 µM) of the same molecule?
A: > 10 µM

Q: What about the IC50 (second compound 3.16 µM) of the same molecule?
A: > 10 µM

Q: And the IC50 (second compound 10 µM)?
A: > 10 µM

Q: And the viability, T/C [1]?
A: 93.6%

Q: What about the viability, T/C [2] of the same molecule?
A: 111%

Q: And the viability, T/C [3]?
A: 141%

Q: And the viability, T/C [4]?
A: 155%

Q: And the viability, T/C [5]?
A: 190%

Q: And the viability, T/C [6]?
A: 134%

Q: And the viability, T/C [7]?
A: 99.8%

Q: What about the viability, T/C [8] of the same molecule?
A: 102%

Q: And the viability, T/C [9]?
A: 114%

Q: What about the viability, T/C [10] of the same molecule?
A: 152%

Q: And the viability, T/C [11]?
A: 224%

Q: What about the viability, T/C [12] of the same molecule?
A: 122%

Q: And the viability, T/C [13]?
A: 81.5%

Q: And the viability, T/C [14]?
A: 77.2%

Q: What about the viability, T/C [15] of the same molecule?
A: 79.3%

Q: What about the viability, T/C [16] of the same molecule?
A: 105%

Q: And the viability, T/C [17]?
A: 101%

Q: What about the viability, T/C [18] of the same molecule?
A: 104%

Q: What about the viability, T/C [19] of the same molecule?
A: 69%

Q: What about the viability, T/C [20] of the same molecule?
A: 75.9%

Q: What about the viability, T/C [21] of the same molecule?
A: 81.1%

Q: And the viability, T/C [22]?
A: 91%

Q: What about the viability, T/C [23] of the same molecule?
A: 114%

Q: And the viability, T/C [24]?
A: 92.3%

Q: And the viability, T/C [25]?
A: 58.4%

Q: What about the viability, T/C [26] of the same molecule?
A: 70.1%

Q: What about the viability, T/C [27] of the same molecule?
A: 67.1%

Q: And the viability, T/C [28]?
A: 84.6%

Q: What about the viability, T/C [29] of the same molecule?
A: 128%

Q: What about the viability, T/C [30] of the same molecule?
A: 84%

Q: And the viability, T/C [31]?
A: 57.8%

Q: What about the viability, T/C [32] of the same molecule?
A: 69.2%

Q: And the viability, T/C [33]?
A: 74.8%

Q: And the viability, T/C [34]?
A: 75.9%

Q: What about the viability, T/C [35] of the same molecule?
A: 117%

Q: And the viability, T/C [36]?
A: 80.7%

Q: What does the source list for `COC1C=CCC(C)C(C)S(=O)(=O)NC(=O)c2ccc3c(c2)N(CC2CCC21)CC1(CCCc2cc(Cl)ccc21)CO3` (centres undefined) + CNC(=O)c1ccc(Nc2nc(OC3CCCC3)c3c(-c4ccc5nc(C)oc5c4)c[nH]c3n2)c(OC)c1?
A: IC50 (second compound 0.0316 µM): > 10 µM; IC50 (second compound 0.1 µM): > 10 µM; IC50 (second compound 0.316 µM): > 10 µM; IC50 (second compound 1 µM): > 10 µM; IC50 (second compound 3.16 µM): > 10 µM; IC50 (second compound 10 µM): > 10 µM; viability, T/C [1]: 118%; viability, T/C [2]: 112%; viability, T/C [3]: 114%; viability, T/C [4]: 96.4%; viability, T/C [5]: 120%; viability, T/C [6]: 84.6%; viability, T/C [7]: 101%; viability, T/C [8]: 92.9%; viability, T/C [9]: 94.1%; viability, T/C [10]: 89.2%; viability, T/C [11]: 97.8%; viability, T/C [12]: 79.6%; viability, T/C [13]: 85.2%; viability, T/C [14]: 86.5%; viability, T/C [15]: 72.9%; viability, T/C [16]: 82.3%; viability, T/C [17]: 91.6%; viability, T/C [18]: 86.6%; viability, T/C [19]: 69.3%; viability, T/C [20]: 68.7%; viability, T/C [21]: 60%; viability, T/C [22]: 63.9%; viability, T/C [23]: 87%; viability, T/C [24]: 82.2%; viability, T/C [25]: 69.9%; viability, T/C [26]: 61.5%; viability, T/C [27]: 62.4%; viability, T/C [28]: 57.9%; viability, T/C [29]: 88%; viability, T/C [30]: 82%; viability, T/C [31]: 58%; viability, T/C [32]: 59.5%; viability, T/C [33]: 69.5%; viability, T/C [34]: 72.8%; viability, T/C [35]: 94.8%; viability, T/C [36]: 91.5%

— PubChem BioAssay AID2060603 (Molecular Pharmacology Branch, DTP, NCI, 2025)
